Results from PMC8333425, “Discovery of a dual Ras and ARF6 inhibitor from a GPCR endocytosis screen” (Nature Communications, 2021).
“And” between values parts separate entries of the source, which are not always exact repeats. Equal entries are not always repeated.

System: ERK1/2 activation by AT1R
Assay: Western blot of AT1R-mediated ERK1/2 phosphorylation
Assay type: cell-based, human
Conditions: for p-ERK1/2 over ERK1/2, normalized to basal (0 min), AT1R: Comp 21 50 μM; for p-ERK1/2 over ERK1/2, normalized to basal (0 min), AT1R / ERK 1/2 activation, AT1R (p-ERK1/2 over ERK1/2, fold over basal): individual experiments
Experimental: HEK293SL cells (10^5 cells per well) were seeded in a poly-L-lysine-coated six-well plate and transiently transfected with 3 μg Flag-AT1R, HA-B2R or HA-β2AR and/or 500 ng Flag-MEK1-WT, Flag-MEK1-DD, Flag-BRAF-WT, Flag-BRAF-V600E, Flag-K-Ras-WT, Flag-K-Ras-G12V, HA-ARF6-WT, or HA-ARF6-T27N. Gαq/11 KO and βarr1/2 KO cells were seeded onto 100 mm dishes at a density of 10^6 cells per dish. Next day, cells were transfected with 3 μg AT1R alone or along with 500 ng of β-arrestin2 using PEI. After 18 h of transfection, cells were detached and re-seeded onto poly-L-lysine coated 12-well plates (~1.5–2 × 10^5cells/well) for subsequent experiments. Forty-eight hours post transfection, in a 37 °C water bath, cells were serum-starved for 30 min, pretreated with DMSO (0.1%) or compound 21/Rasarfin (50 µM or at indicated concentrations) for 30 min, then stimulated or not with the indicated ligand [AngII (1 µM), BK (1 µM), Iso (10 µM) or EGF (100 ng/ml)] at indicated times. Cells were put on ice, washed with PBS and solubilized in 2x laemmli buffer (250 mM Tris–HCl pH 6.8, 2% SDS (w/v), 10% glycerol (v/v), 0.01% bromophenol blue (w/v) and 5% β-mercaptoethanol (v/v)) by heating at 65 °C for 15 min. Lysates were resolved on 10 or 14% SDS-PAGE, transferred to nitrocellulose membranes and immunoblotted for p-ERK1/2, ERK1/2, p-Akt, Akt, HA, Myc, β-actin or FLAG. ImageLab 5.2 software was used to quantify the digital blots as fold of the phosphorylated protein over total protein, which were then normalized as indicated in the figure legends. Uncropped immunoblots are provided in the Source Data file.

Nn1cnc2scc(-c3ccc(Cc4ccccc4)cc3)c2c1=O [Barbadin, reference compound] was tested, and the “MAPK promoted by AT1R” value (Barbadin 100 µM) was “ineffective at blocking MAPK”.

For CC(C)C(=O)N1CCN(c2ccc(NC(=O)c3cc4ccccc4o3)cc2Cl)CC1 [Compound 21], the “AngII-mediated phosphorylation of ERK1/2” value (50 μM) was “totally inhibited”, the “p-ERK1/2 over ERK1/2, normalized to basal (0 min), AT1R” value (“p-ERK1/2 over ERK1/2, normalized” below) (time 0 min) was 1 and the “p-ERK1/2 over ERK1/2, normalized” value (time 2 min) was 0.1554 and 0.4142 and 0.5216 and 8.819. The “p-ERK1/2 over ERK1/2, normalized” value (time 5 min) was 0.1741 and 0.568 and 0.6273 and 10.8319, the “Mean Diff. DMSO vs. compound of P-ERK/ERK (fold over Basal) (Dunnett's multiple comparisons test)” value (Fig.8b) was 6.88 and the IC50 (Homo sapiens, read-out: IC50 for inhibition of ERK1/2 activation by AT1R) was 5 µM. The “ERK 1/2 activation, AT1R (p-ERK1/2 over ERK1/2, fold over basal)” value (Log [Comp 21] (M) -4.3) was 17.8621 percent compared to DMSO and 9.459 percent compared to DMSO and 11.994 percent compared to DMSO, the “ERK 1/2 activation, AT1R (p-ERK1/2 over ERK1/2, fold over basal)” value (Log [Comp 21] (M) -5) was 18.3493 percent compared to DMSO and 17.9264 percent compared to DMSO and 17.6879 percent compared to DMSO and the “ERK 1/2 activation, AT1R (p-ERK1/2 over ERK1/2, fold over basal)” value (Log [Comp 21] (M) -5.3) was 58.8009 percent compared to DMSO and 49.3558 percent compared to DMSO and 49.3771 percent compared to DMSO. For the same compound, the “ERK 1/2 activation, AT1R (p-ERK1/2 over ERK1/2, fold over basal)” value (Log [Comp 21] (M) -6) was 81.7633 percent compared to DMSO and 93.0329 percent compared to DMSO and 113.57 percent compared to DMSO, the “ERK 1/2 activation, AT1R (p-ERK1/2 over ERK1/2, fold over basal)” value (Log [Comp 21] (M) -6.3) was 97.88 percent compared to DMSO and 83.5696 percent compared to DMSO and the “ERK 1/2 activation, AT1R (p-ERK1/2 over ERK1/2, fold over basal)” value (Log [Comp 21] (M) -7) was 100 percent compared to DMSO.

CCCC(=O)N1CCN(c2ccc(NC(=O)c3cc4ccccc4o3)cc2Cl)CC1 [Compound 21.8] was tested, and the “inhibition of AT1R-mediated ERK1/2 (MAPK) activation (Fig. 8b)” value (50 μM) was “maintained its MAPK inhibitory property”.
